{"source": "patent US11400059B2", "about": "“Treatment of pain and/or pain related symptoms associated with dysmenorrhea” (ALYRA BIOTECH PTY LTD, priority 2017, dated 2022)", "key": {"[1]": {"tested_on": "mice with intrauterine LPS", "experiment": "Facial Grimace Scale 24 hours after final LPS stimulation", "format": "in vivo, mouse (Balb/C)", "conditions": "LPS in conjunction with amitriptyline or TAK242, 24 hours after final LPS stimulation", "experimental": "Group 1 included twelve mice with 20 μl endotoxin-free saline introduced to the uterus on the first day of estrus and the subsequent day over 3 consecutive estrous cycles. Group 2 included twelve mice with LPS (100 μg/kg) instilled in the uterus on the first day of estrus and saline injected on the subsequent day over 3 consecutive estrous cycles. Group 3 included twelve mice with LPS (100 μg/kg) mixed with amitriptyline (20 μl of a 100 μM solution, equivalent to 28 μg/kg) instilled in the uterus on the first day of estrus, and amitriptyline alone instilled on the subsequent day over 3 consecutive estrous cycles. Group 4 included 14 mice with LPS (100 μg/kg) mixed with TAK-242 (20 μl of a 100 μM solution, equivalent to 36 μg/kg) instilled on the first day of estrus and TAK-242 alone instilled on the subsequent day over 3 consecutive estrous cycles.\n24 hours following the final LPS stimulation mice were subjected to assessment for the presence or absence of pain. This was assessed using the following tests:\nFacial Grimace Scale: Photos of mice in their home cage will be taken, to score their facial Grimace and this was quantified and compared between groups. For further information see: http://www.nature.com/nmeth/journal/v7/n6/full/nmeth.1455.html."}, "hNOD1": {"molecular_target": "T1, hNOD1 (Homo sapiens, UniProt Q9Y239)", "T1 construct": "expressed in transfected cells; host or cells: HEK293", "T1 sequence (Q9Y239 1-953)": "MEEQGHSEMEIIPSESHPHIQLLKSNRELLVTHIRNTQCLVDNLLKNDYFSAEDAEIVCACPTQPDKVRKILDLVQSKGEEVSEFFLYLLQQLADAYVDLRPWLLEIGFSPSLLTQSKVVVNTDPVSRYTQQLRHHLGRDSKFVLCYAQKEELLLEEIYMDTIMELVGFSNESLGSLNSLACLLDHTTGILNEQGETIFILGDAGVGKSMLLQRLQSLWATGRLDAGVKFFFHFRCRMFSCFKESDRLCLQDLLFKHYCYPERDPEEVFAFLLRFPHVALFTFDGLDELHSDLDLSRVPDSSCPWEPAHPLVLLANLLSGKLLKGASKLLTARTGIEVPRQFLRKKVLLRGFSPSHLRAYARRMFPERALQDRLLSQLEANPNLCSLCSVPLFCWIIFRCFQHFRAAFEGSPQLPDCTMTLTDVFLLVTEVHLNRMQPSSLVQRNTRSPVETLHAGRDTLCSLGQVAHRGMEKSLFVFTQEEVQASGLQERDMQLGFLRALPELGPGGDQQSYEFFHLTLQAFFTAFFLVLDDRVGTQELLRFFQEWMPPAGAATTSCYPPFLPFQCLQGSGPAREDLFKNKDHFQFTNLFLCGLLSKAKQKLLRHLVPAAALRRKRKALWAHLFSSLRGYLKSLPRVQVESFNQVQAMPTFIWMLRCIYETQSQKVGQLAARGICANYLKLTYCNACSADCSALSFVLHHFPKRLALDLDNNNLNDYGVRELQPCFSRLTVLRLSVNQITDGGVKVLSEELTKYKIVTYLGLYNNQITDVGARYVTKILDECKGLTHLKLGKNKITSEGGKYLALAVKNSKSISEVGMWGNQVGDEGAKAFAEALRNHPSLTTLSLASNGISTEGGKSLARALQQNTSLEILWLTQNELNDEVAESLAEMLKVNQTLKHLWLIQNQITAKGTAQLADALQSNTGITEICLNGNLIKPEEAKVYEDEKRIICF", "experiment": "Human NLR antagonist screening, NF-κB SEAP reporter in HEK293 cells", "format": "cell-based", "conditions": "antagonist mode, Ami 1 μM, +C12-iE-DAP 100 ng/mL, No Sample 10, Control− 1", "experimental": "(§1) Toll-Like Receptor (TLR), NOD-Like Receptor (NLR) and C-Type Lectin Receptor (CLR) stimulation were tested by assessing NF-κB activation in HEK293 cells expressing a given TLR, NLR or CLR. The activity of the test articles was tested at one concentration and compared to control ligands. These steps were performed in triplicate. hNOD1: C12-iE-DAP at 1 μg/mL Antagonist: 100 ng/mL. In a 96-well plate (200 μL total volume) containing the appropriate cells (50,000-75,000 cells/well), 20 μL of the test article or the positive control ligand was added to the wells. For the antagonist assay, the test article was incubated with the cells, at 37° C. with 5% CO2, for 30 minutes prior to the addition of the positive control ligand to the wells. The media added to the wells was designed for the detection of NF-κB induced SEAP expression. After a 16-24 hr incubation the optical density (OD) was read at 650 nm on a Molecular Devices SpectraMax 340PC absorbance detector. Fold induction (ratio of average induced value to average non-induced value) was determined for each TLR, NOD1, NOD2, Dectin-1a, Dectin-1b."}, "Human Dectin-1a": {"molecular_target": "T2, Human Dectin-1a (Homo sapiens, UniProt Q9BXN2)", "T2 construct": "expressed in transfected cells; host or cells: HEK293", "T2 sequence (Q9BXN2 1-247)": "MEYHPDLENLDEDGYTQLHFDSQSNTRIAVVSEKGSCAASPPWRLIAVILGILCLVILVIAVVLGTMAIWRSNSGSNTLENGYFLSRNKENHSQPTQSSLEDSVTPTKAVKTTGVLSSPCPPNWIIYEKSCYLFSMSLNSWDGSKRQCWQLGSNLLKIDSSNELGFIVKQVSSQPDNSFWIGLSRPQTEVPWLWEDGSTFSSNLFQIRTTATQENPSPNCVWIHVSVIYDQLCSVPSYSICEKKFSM", "experiment": "Human CLR antagonist screening, NF-κB SEAP reporter in HEK293 cells", "format": "cell-based", "conditions": "antagonist mode, Ami 1 μM", "experimental": "as §1, with “triplicate. hDectin-1a and hDectin-1b: WGP Soluble (0-glucan from S. cerevisiae)” for “triplicate. hNOD1: C12-iE-DAP”, “at 10 ng/mL Antagonist: 5 ng/mL. Curdlan at 100 μg/mL. Antagonist: 100 μg/mL. Zymosan Depleted (hot alkali treated S. cerevisiae) at 5” for “at 1”, “Antagonist: 3 μg/mL.” for “Antagonist: 100 ng/mL.”"}}, "data": [{"smiles": "CN(C)CCC=C1c2ccccc2CCc2ccccc21", "note": "[Amitriptyline]", "values": [{"measurement": "Grimace scores", "setting": "[1]", "value": "reduced these scores"}, {"measurement": "Fold Induction", "setting": "hNOD1", "value": "slight inhibitory effect"}, {"measurement": "Fold Induction", "setting": "hNOD1; listed as Ami", "value": 9}, {"measurement": "Fold Induction", "setting": "Human Dectin-1a; +Curdlan 100 μg/mL, No Sample 5, Control− 1", "value": "slight inhibitory effect"}, {"measurement": "Fold Induction", "setting": "Human Dectin-1a; +Curdlan 100 μg/mL, No Sample 5, Control− 1, listed as Ami", "value": 4}, {"measurement": "Fold Induction", "setting": "Human Dectin-1a; +WGP Soluble 5 ng/mL, No Sample 8, Control− 1", "value": 8}, {"measurement": "Fold Induction", "setting": "Human Dectin-1a; +Zymosan Depleted 3 μg/mL, No Sample 6, Control− 1", "value": "slight inhibitory effect"}, {"measurement": "Fold Induction", "setting": "Human Dectin-1a; +Zymosan Depleted 3 μg/mL, No Sample 6, Control− 1, listed as Ami", "value": 4}]}]}
